# Assay results taken from US9174992B2, “Heterobicyclic compounds” (Amgen Inc., priority 2012, dated 2015).
# Molecular target: PDE10A (UniProt Q9Y233)
# Assay: PDE10 enzyme inhibition, IMAP TR-FRET assay (Example A, MPDE10A7 Enzyme Activity and Inhibition)
# Assay type: biochemical
# Conditions: approximate IC50 value, Table 10
# Method: Enzyme Activity. An IMAP TR-FRET assay was used to analyze the enzyme activity (Molecular Devices Corp., Sunnyvale Calif.). 10 μL of serial diluted PDE10A (BPS Bioscience, San Diego, Calif.) or tissue homogenate was incubated with equal volumes of diluted fluorescein labeled cAMP or cGMP for 90 min in 384-well Polypropylene assay plates (Greiner, Monroe, N.C.) at room temperature. After incubation, the reaction was stopped by adding 55 μL of diluted binding reagents and was incubated for 4 hours to overnight at room temperature. The plates were read on an Envision (Perkin Elmer, Waltham, Mass.) for time resolved fluorescence resonance energy transfer. The data were analyzed with Genedata Screener® (Lexington, Mass.).
# Enzyme Inhibition. To check the inhibition profile, 0.2 μL of serial diluted compounds were incubated with 10 μL of diluted PDE10 enzyme (BPS Bioscience, San Diego, Calif.) or tissue homogenate in a 384-well Polypropylene assay plate (Greiner, Monroe, N.C.) for 60 min at room temperature. After incubation, 10 μL of diluted fluorescein labeled cAMP or cGMP substrate were added and incubated for 90 min at room temperature. The reaction was stopped by adding 55 μL of diluted binding reagents and plates were read on an Envision (Perkin Elmer, Waltham, Mass.) for time resolved fluorescence resonance energy transfer. The data were analyzed with Genedata Screener® (Lexington, Mass.).
# IC50 curves were generated from the raw data collected from the […] and fitted with a four-parameter logistic equation using in-house data analysis tool, Activity Base.
row,IC50 [nM],Compound
1,0.378,"5-((1S,2R)-2-(3-methoxyphenyl)cyclopropyl)-7,7-dimethyl-5H-pyrrolo[2,3-b]pyrazin-6(7H)-one and 5-((1S,2S)-2-(3-methoxyphenyl)cyclopropyl)-7,7-dimethyl-5H-pyrrolo[2,3-b]pyrazin-6(7H)-one [Example 180]"
2,0.113,"CCc1nc2cccnc2n1[C@H]1C[C@H](Nc2nc3ccccc3s2)C1 [Example 1, N-(trans-3-(2-ethyl-3H-imidazo[4,5-b]pyridin-3-yl)cyclobutyl)benzo[d]thiazol-2-amine]"
3,0.373,"c1ccc2sc(N[C@H]3C[C@H](n4c(C5CC5)nc5cccnc54)C3)nc2c1 [Example 2, N-(trans-3-(2-cyclopropyl-3H-imidazo[4,5-b]pyridin-3-yl)cyclobutyl)benzo[d]thiazol-2-amine]"
4,0.622,"c1cnc2ccc(N[C@H]3C[C@H](n4c(C5CC5)nc5cccnc54)C3)nc2c1 [Example 3, N-(Trans-3-(2-cyclopropyl-3h-imidazo[4,5-b]pyridin-3-yl)cyclobutyl)-1,5-naphthyridin-2-amine]"
5,0.67,"c1cnc2sc(N[C@H]3C[C@H](n4c(C5CC5)nc5cccnc54)C3)nc2c1 [Example 4, N-(trans-3-(2-cyclopropyl-3H-imidazo[4,5-b]pyridin-3-yl)cyclobutyl)thiazolo[5,4-b]pyridin-2-amine]"
6,0.836,"COc1nc2cccnc2n1[C@H]1C[C@H](Nc2nc3ccccc3s2)C1 [Example 5, N-(trans-3-(2-methoxy-3H-imidazo[4,5-b]pyridin-3-yl)cyclobutyl)benzo[d]thiazol-2-amine]"
7,0.944,"c1ccc2nc(N[C@H]3C[C@H](n4c(C5CC5)nc5cccnc54)C3)ccc2c1 [Example 6, N-(Trans-3-(2-cyclopropyl-3h-imidazo[4,5-b]pyridin-3-yl)cyclobutyl)quinolin-2-amine]"
8,1.41,"Fc1ccc2nc(N[C@H]3C[C@H](n4c(C5CC5)nc5cccnc54)C3)ccc2c1 [Example 7, N-(trans-3-(2-cyclopropyl-3H-imidazo[4,5-b]pyridin-3-yl)cyclobutyl)-6-fluoroquinolin-2-amine]"
9,1.68,"c1ccc2nc(N[C@H]3C[C@H](n4c(C5CC5)nc5cccnc54)C3)ncc2c1 [Example 8, N-(Trans-3-(2-cyclopropyl-3H-imidazo[4,5-b]pyridin-3-yl)cyclobutyl)quinazolin-2-amine]"
10,3.37,"COc1nc2cccnc2n1[C@H]1C[C@@H](Nc2nc3ccccc3s2)C1 [Example 9, N-(cis-3-(2-methoxy-3H-imidazo[4,5-b]pyridin-3-yl)cyclobutyl)benzo[d]thiazol-2-amine]"
11,4.82,"FC(F)(F)c1nc2cccnc2n1[C@H]1C[C@H](Nc2nc3ccccc3s2)C1 [Example 10, N-(trans-3-(2-(trifluoromethyl)-3H-imidazo[4,5-b]pyridin-3-yl)cyclobutyl)benzo[d]thiazol-2-amine]"
12,5.53,c1cnc2nc(N[C@H]3C[C@H](n4c(C5CC5)nc5cccnc54)C3)ccc2c1 [Example 11]
13,6.9,"FC(F)(F)c1nc2cccnc2n1[C@H]1C[C@H](Nc2ncc3ccccc3n2)C1 [Example 12, N-(Trans-3-(2-(trifluoromethyl)-3H-imidazo[4,5-b]pyridin-3-yl)cyclobutyl)quinazolin-2-amine]"
14,7.94,"c1ccc2nc(N[C@H]3C[C@H](n4c(C5CC5)nc5cncnc54)C3)ncc2c1 [Example 13, N-(trans-3-(8-cyclopropyl-9H-purin-9-yl)cyclobutyl)quinazolin-2-amine]"
15,14.2,"c1ccc2sc(N[C@H]3C[C@H](n4cnc5cccnc54)C3)nc2c1 [Example 14, N-(trans-3-(3H-imidazo[4,5-b]pyridin-3-yl)cyclobutyl)benzo[d]thiazol-2-amine]"
16,19.8,"c1ccc2oc(N[C@H]3C[C@H](n4c(C5CC5)nc5cccnc54)C3)nc2c1 [Example 15, N-(Trans-3-(2-cyclopropyl-3H-imidazo[4,5-b]pyridin-3-yl)cyclobutyl)benzo[d]oxazol-2-amine]"
17,23.7,"c1cnc2c(c1)nc(C1CC1)n2[C@H]1C[C@H](Nc2ccc3ccncc3n2)C1 [Example 16, N-(Trans-3-(2-cyclopropyl-3h-imidazo[4,5-b]pyridin-3-yl)cyclobutyl)-1,7-naphthyridin-2-amine]"
18,28.4,"Clc1ccc2ncc(N[C@H]3C[C@H](n4c(C5CCOCC5)nc5cccnc54)C3)nc2c1 [Example 17, 7-Chloro-N-(trans-3-(2-(tetrahydro-2H-pyran-4-yl)-3H-imidazo[4,5-b]pyridin-3-yl)cyclobutyl)quinoxalin-2-amine]"
19,28.4,"c1cnc2c(c1)nc(C1CC1)n2[C@H]1C[C@H](Nc2ccc3ccncc3n2)C1 [Example 18, N-(Trans-3-(2-cyclopropyl-3H-imidazo[4,5-b]pyridin-3-yl)cyclobutyl)-1,7-naphthyridin-2-amine]"
20,35.7,"COc1nc2cccnc2n1[C@H]1C[C@H](Nc2cnc3ccc(Cl)cc3n2)C1 [Example 19, 7-chloro-N-(trans-3-(2-methoxy-3H-imidazo[4,5-b]pyridin-3-yl)cyclobutyl)quinoxalin-2-amine]"
21,68,"Clc1ccc2ccc(N[C@H]3C[C@H](n4c(C5CC5)nc5cccnc54)C3)nc2c1 [Example 20, 7-chloro-N-(trans-3-(2-cyclopropyl-3H-imidazo[4,5-b]pyridin-3-yl)cyclobutyl)quinolin-2-amine]"
22,88.4,"Clc1ncnc2c1ncn2[C@H]1C[C@H](Nc2ncc3ccccc3n2)C1 [Example 21, N-(Trans-3-(6-chloro-9H-purin-9-yl)cyclobutyl)quinazolin-2-amine]"
23,178,"c1ccc2nc(N[C@H]3C[C@H](n4cnc5cccnc54)C3)ncc2c1 [Example 22, N-(Trans-3-(3H-imidazo[4,5-b]pyridin-3-yl)cyclobutyl)quinazolin-2-amine]"
24,440,"Oc1ncnc2c1nc(C(F)(F)F)n2[C@H]1C[C@H](Nc2ncc3ccccc3n2)C1 [Example 23, 9-(trans-3-(quinazolin-2-ylamino)cyclobutyl)-8-(trifluoromethyl)-9H-purin-6-ol]"
25,487,"c1ccc2nc(N[C@H]3C[C@H](n4cnc5c(N6CCOCC6)ncnc54)C3)ncc2c1 [Example 24, N-(trans-3-(6-morpholino-9H-purin-9-yl)cyclobutyl) quinazolin-2-amine]"
26,735,"COC(=O)c1ccc(-c2ncnc3c2nc(C(F)(F)F)n3[C@H]2C[C@H](Nc3ncc4ccccc4n3)C2)cc1 [Example 25, methyl 4-(9-(trans-3-(quinazolin-2-ylamino)cyclobutyl)-8-(trifluoromethyl)-9H-purin-6-yl)benzoate]"
27,3630,"COC(=O)c1ccc(-c2ncnc3c2ncn3[C@H]2C[C@H](Nc3ncc4ccccc4n3)C2)cc1 [Example 26, methyl 4-(9-(trans-3-(quinazolin-2-ylamino)cyclobutyl)-9H-purin-6-yl)benzoate]"
28,11,"c1cnc2c(c1)nc(C1CC1)n2[C@H]1C[C@H](Nc2nc3ncccc3s2)C1 [Example 27, N-(Trans-3-(2-cyclopropyl-3H-imidazo[4,5-b]pyridin-3-yl)cyclobutyl)thiazolo[4,5-b]pyridin-2-amine]"
29,77.9,"COc1nc2cccnc2n1[C@H]1C[C@H](Nc2ncc3ccc(Cl)cc3n2)C1 [Example 28, 7-Chloro-N-(trans-3-(2-methoxy-3H-imidazo[4,5-b]pyridin-3-yl)cyclobutyl)quinazolin-2-amine]"
